Test: physchem
Settings: octan-1-ol/water, pH 7.4

| Structure (SMILES) | logD |
| --- | --- |
| COc1cc(O)c2c(c1)/C=C/C[C@H](O)[C@H](O)C(=O)/C=C\C[C@H](C)OC2=O | 1.64 |
| N#Cc1c(-c2ccccc2)nc(SCCc2ccccc2)[nH]c1=O | 1.71 |
| CC(C)[C@@H](CN1CCCCC1)N(C)C(=O)Cc1ccc(Cl)c(Cl)c1 | 2.87 |
| COc1ccc(C(CN2CCCC2)N(C)C(=O)Cc2ccc(Cl)c(Cl)c2)c(OC)c1 (centres undefined) | 3.07 |
| C[C@H]1NC(C)(C)CO[C@]1(O)c1cccc(Cl)c1 | 1.69 |
| O=C(N[C@@H]1CN2CCC1CC2)c1ccc(-c2ccccc2)s1 | 1.77 |
| CC(O)C(C)OC(=O)[C@@H]1CC2c3cccc4c3c(cn4C(C)C)CC2N(C)C1 (some centres undefined) | 2.8 |
| CN1CC=C(c2cccc(O)c2)CC1 | 0.53 |
| NC(=O)c1cccc(O[C@H]2C[C@H]3CC[C@@H](C2)N3CC2CCCCC2)c1 | 1.55 |
| CN(C)C(=O)N[C@H]1CC[C@H](CN2[C@@H]3CC[C@H]2C[C@@H](Oc2cccc(C(N)=O)c2)C3)CC1 | -0.07 |
| CN(C)C(=O)N[C@H]1CC[C@H](CCN2[C@@H]3CC[C@H]2C[C@@H](Oc2cccc(C(N)=O)c2)C3)CC1 | 0.12 |
| CN(C)C(=O)N[C@H]1CC[C@@H](CCN2[C@@H]3CC[C@H]2C[C@@H](Oc2cccc(C(N)=O)c2)C3)CC1 | 0.22 |
| NC(=O)c1cccc(O[C@H]2C[C@H]3CC[C@@H](C2)N3Cc2ccccc2)c1 | 1.61 |
| NC(=O)c1cccc(O[C@@H]2C[C@H]3CC[C@@H](C2)N3Cc2ccccc2)c1 | 1.76 |
| NC(=O)c1cccc(C[C@H]2C[C@H]3CC[C@@H](C2)N3Cc2ccccc2)c1 | 1.19 |
| NC(=O)c1cccc(C[C@@H]2C[C@H]3CC[C@@H](C2)N3Cc2ccccc2)c1 | 1.11 |
| NC(=O)c1cccc(N[C@H]2C[C@H]3CC[C@@H](C2)N3Cc2ccccc2)c1 | 1.01 |
| NC(=O)c1cccc(O[C@H]2C[C@H]3CC[C@@H](C2)N3Cc2ccccc2)n1 | 1.71 |
| NC(=O)c1cncc(O[C@H]2C[C@H]3CC[C@@H](C2)N3Cc2ccccc2)n1 | 1.1 |
| Cc1c(O[C@H]2C[C@H]3CC[C@@H](C2)N3Cc2ccccc2)cccc1C(N)=O | 1.6 |
| NC(=O)c1ccc(O[C@H]2C[C@H]3CC[C@@H](C2)N3Cc2ccccc2)nc1 | 1.25 |
| Oc1ccnc2ccccc12 | 0.8 |

| Structure (SMILES) | logD |
| --- | --- |
| CCN(CC)C(=O)c1ccc(C(c2cccc3cccnc23)N2CCNCC2)cc1 (centres undefined) | 0.7 |
| Cc1ccnc(NCc2ccc(Cl)cc2)c1 | 3.6 |
| COc1ccccc1Cn1c(C)nc2ccccc21 | 3.47 |
| Nc1ccc2nc(-c3ccc(O)cc3)sc2c1 | 3.1 |
| O=c1c2ccccc2nc2n1CCS2(=O)=O | 0.8 |
| COc1cccc(COCC(O)CN2CCC(C(N)=O)CC2)c1 (centres undefined) | -0.5 |
| Cc1cc(O)nc(-n2nc(C)c(Oc3ccccc3O)c2C)n1 | 1.4 |
| CC(=O)Nc1ccc(S(=O)(=O)Nc2ccc(Cc3ccncc3)cc2)cc1 | 2.8 |
| Cc1cc(C)n(-c2cccc(Cl)c2C#N)n1 | 3 |
| C1CCC(NC2CCCCC2)CC1 | -0.38 |
| CCCCCc1ccc(-c2nnc(N)s2)cc1 | 4.13 |
| COc1ccc(-n2cnc3cc(NS(=O)(=O)c4ccccc4)ccc32)cc1 | 3.7 |
| Nc1ccc(C2(c3ccc(N)cc3)CCCCC2)cc1 | 3.2 |
| CC1(C)CC(=O)c2c(nc3ccccc3c2N)C1 | 3 |
| CCOC(=O)c1c(C)n(Cc2ccco2)c2ccc(O)cc12 | 3.5 |
| Nc1ncnc2oc(-c3ccoc3)c(-c3ccco3)c12 | 3.1 |
| Cc1ccc(CN2C(=O)CCSc3ccc(Cl)cc32)cc1 | 3.7 |
| CC(C)(C)c1ccc(C2=NC(=O)C(CC(=O)O)S2)cc1 (centres undefined) | -0.1 |
| c1ccc(CCNCc2ccccc2)cc1 | 1.65 |
| CC(C)[C@@H]1N=C(c2ccccc2)c2ccccc2NC1=O | 3.05 |
| COc1ccc(C=C2SC(=O)NC2=O)cc1OC | 1.17 |
| Cn1c(=O)n(Cc2ccc(Br)cc2)c2ccccc21 | 2.81 |

| Structure (SMILES) | logD |
| --- | --- |
| Cc1ccc(-c2nnc(O)c3ccccc23)c(C)c1 | 3.41 |
| Cn1nnc(-c2ccc(-c3ccc(N4C[C@H](COc5ccon5)OC4=O)cc3F)cn2)n1 | 1.24 |
| N#Cc1cccc(-c2ccc(C3(CNC(=O)Nc4cc(Cl)cc(Cl)c4)CCN(CC4CC4)CC3)cc2)c1 | 3.37 |
| O=C(O)CCC(=O)N1CCC(c2nc(-c3cccs3)no2)CC1 | -1.27 |
| COc1cc(F)ccc1-c1cncc(C2CCCN2)c1 (centres undefined) | 1.1 |
| CCCNC(=O)c1nnc2c(-c3cnc(OC)nc3OC)cccc2c1N | 3.26 |
| CCCNC(=O)c1nnc2c(-c3cnccc3OC)cccc2c1N | 2.83 |
| CCCNC(=O)c1nnc2c(-c3cc(C)ccc3OC)cccc2c1N | 3.99 |
| Cc1nc(-c2ccc(CN3CCC(n4c(=O)[nH]c5ccccc54)CC3)cc2)c(-c2ccccc2)[nH]c1=O | 3.8 |
| O=C(NCc1ccncn1)c1ccc(Oc2ccc(C#C[C@]3(O)CN4CCC3CC4)cc2)cc1 | 1.78 |
| O=C(NCc1ccncn1)c1ccc(Oc2ccc(C#C[C@@]3(O)CN4CCC3CC4)cc2)cc1 | 1.77 |
| O=C(O)c1cn(C2CC2)c2cc(=[N+]3CCN(C(=O)CC[N+](=O)[O-])CC3)c(F)cc-2c1[O-] | 0.22 |
| Oc1ccc(Br)c2ccccc12 | 4.3 |
| CC(O)c1ccc2c(c1)N(CCN1CCC(NCc3ccc4c(n3)NC(=O)CO4)CC1)C(=O)CO2 (centres undefined) | 0.25 |
| O=C1COc2ccc(CNC3CCN(CCN4C(=O)COc5ccc(O)cc54)CC3)nc2N1 | 0.52 |
| COC(=O)c1ccc2c(c1)N(CCN1CCC(NCc3ccc4c(n3)NC(=O)CO4)CC1)C(=O)CO2 | 0.83 |
| CC(=O)c1ccc2c(c1)N(CCN1CCC(NCc3ccc4c(n3)NC(=O)CO4)CC1)C(=O)CO2 | 0.37 |
| O=C(Cc1cccc2ccccc12)Nc1ccccc1 | 3.9 |
| O=C(Cc1c(C(=O)O)[nH]c2ccccc12)Nc1cccc(C(F)(F)F)c1 | 1.33 |
| Cc1ccc(-c2cc(C(=O)N3CCOCC3)c3cc(C)ccc3n2)cc1 | 3.6 |
| CC(C)C1NCCc2c1sc1ccccc21 (centres undefined) | 2.8 |
| CCN(CC)C(=O)c1ccc([C@H](c2cccc(NC(=O)C3CC3)c2)N2CCN(Cc3ccc(F)cc3)CC2)cc1 | 3.99 |

| Structure (SMILES) | logD |
| --- | --- |
| CN(CCO)C(=O)c1ccc([C@H](c2cccc(NC(=O)C3CC3)c2)N2CCN(Cc3ccc(F)cc3)CC2)cc1 | 3.38 |
| O=C(Nc1cccc([C@@H](c2ccc(C(=O)N3CCC3)cc2)N2CCN(Cc3ccc(F)cc3)CC2)c1)C1CC1 | 3.58 |
| CCN(C)C(=O)c1ccc([C@H](c2cccc(NC(=O)C3CCC3)c2)N2CCN(Cc3cccnc3)CC2)cc1 | 3.27 |
| CCOC(=O)Nc1cccc([C@@H](c2ccc(C(=O)N3CCC3)cc2)N2CCN(Cc3cccnc3)CC2)c1 | 3.02 |
| CCN(C)C(=O)c1ccc(C(=C2CCN(Cc3ccc(F)cc3)CC2)c2ccccc2NC(C)=O)cc1 | 2.79 |
| CN1CCC[C@H]1c1ccccn1 | 0.44 |
| c1cncc(-c2ccc(-c3nnc(C4CN5CCC4CC5)o3)o2)c1 (centres undefined) | 1.2 |
| C[C@@H]1CN(C(=O)OC(C)(C)C)CCN1c1ncc(OCc2ccc(S(C)(=O)=O)cc2)cn1 | 3.6 |
| CC(C)(C)OC(=O)N1CCN(c2ncc(OCc3ccncc3C#N)cn2)CC1 | 2.81 |
| c1ccc(C2CCNCC2)cc1 | 0.54 |
| Nc1nc(Nc2ccc3nc(-c4ccc(F)cc4)cc(N)c3c2)cc(-c2ccc(C(F)(F)F)cc2)n1 | 1.54 |
| CN1Cc2ccccc2C(c2ccc(Cl)cc2)C1 (centres undefined) | 3.64 |
| O=C(NCC1CCOCC1)c1nc(OS(=O)(=O)CCC(F)(F)F)ccc1NC(=O)c1ccc(Cn2ccnn2)c2ccccc12 | 4.2 |
| O=C(NCC1CCOCC1)c1ncccc1NC(=O)c1cccc2ccccc12 | 4.4 |
| CN1CC=CCC(c2ccc(Cl)c(Cl)c2)C1 (centres undefined) | 3.32 |
| CCOc1ccc(-n2c(CC)nc3ccccc3c2=O)cc1 | 3.27 |
| CCC(CO)NCCNC(CC)CO (centres undefined) | -1.42 |
| CCN(CC)C(=O)c1ccc(C(=C2CCNCC2)c2ccccc2OC)cc1 | 1 |
| c1ccc2c(OCC3=NCCN3)cccc2c1 | 0.68 |
| C[C@@H]1C2CCCC1(c1cccc(O)c1)CCN2C (some centres undefined) | 0.52 |
| Oc1cc(Cl)cc(Cl)c1 | 3.58 |
| c1ccc(-c2ccc(C3CN4CCC3CC4)cc2)cc1 (centres undefined) | 1.76 |

| Structure (SMILES) | logD |
| --- | --- |
| CN(C(=O)Cc1ccc(Cl)c(Cl)c1)C(CN1CCCC1)c1ccccc1 (centres undefined) | 3.38 |
| COC(=O)C1C(OC(=O)c2ccccc2)CC2CCC1N2C (centres undefined) | 1.06 |
| COc1cc(C(=O)N2CC[C@](CCN3CCC(C(N)=O)(c4ccccc4)CC3)(c3ccc(Cl)c(Cl)c3)C2)cc(OC)c1OC | 3.23 |
| O=C(O)c1cc2ccccc2n1Cc1ccccc1 | 0.78 |
| COc1ccc2c(c1)cc(C(=O)O)n2Cc1ccc(Cl)c(Cl)c1 | 1.66 |
| NC(Cc1ccccc1)c1ccccc1 (centres undefined) | 1.32 |
| O=C1O[C@]2(CN3CCC2CC3)CN1c1cccs1 | 0.9 |
| O=C(N[C@H]1CN2CCC1CC2)c1ccc(-c2ccccn2)s1 | 0.7 |
| Cc1ccc(NC(=O)c2ccnc(N3CCOCC3)c2)cc1Nc1ccnc(N(C)C2CCN(C)CC2)n1 | 1.8 |
| CC12NC(Cc3ccccc31)c1ccccc12 (centres undefined) | 1.7 |
| CNC1=Nc2ncccc2C(c2cc[nH]c2)=NC1c1cccs1 (centres undefined) | 1.73 |
| CCCCCCCCCC(=O)N[C@@H](Cc1c[nH]c2ccccc12)C(=O)N[C@H](CC(N)=O)C(=O)N[C@@H](CC(=O)O)C(=O)N[C@@H]1C(=O)NCC(=O)N[C@@H](CCCN)C(=O)N[C@@H](CC(=O)O)C(=O)N[C@H](C)C(=O)N[C@@H](CC(=O)O)C(=O)NCC(=O)N[C@H](CO)C(=O)N[C@@H]([C@H](C)CC(=O)O)C(=O)N[C@@H](CC(=O)c2ccccc2N)C(=O)O[C@@H]1C | -0.94 |
| CNC1=Nc2ncccc2C(c2ncco2)=NC1c1cccs1 (centres undefined) | 1.14 |
| CCNC1=Nc2ccccc2C(c2ccccc2)=NC1c1cccs1 (centres undefined) | 3.98 |
| CC(=O)N(C)c1ccccc1 | 1.1 |
| CNC1=Nc2ncccc2C(c2ccco2)=NC1c1ccns1 (centres undefined) | 1.44 |
| Cc1ccc(OC(=O)N2CCN3CCC2CC3)cc1 | 1.02 |
| COc1ccc2c3c1OC1C(O)C=CC4C(C2)N(C)CCC341 (centres undefined) | 0.8 |
| COc1cc2c(c(OC)c1OC)-c1ccc(OC)c(=O)cc1C(NC(C)=O)CC2 (centres undefined) | 1.12 |
| Cc1cc(N)c2cc(NC(=O)CC(=O)Nc3ccc4nc(C)cc(N)c4c3)ccc2n1 | 1.35 |
| CN(C)CC/C=C1\c2ccccc2Sc2ccc(Cl)cc21 | 3.42 |

Reference: ChEMBL document CHEMBL3301361, “Experimental in vitro DMPK and physicochemical data on a set of publicly disclosed compounds”
